Source: patent US10252987B2, “Type of antiviral compound” (Institute of Medicinal Biotechnology, Chinese Academy of …, priority 2015, dated 2019)

System: HCV
Test: anti-HCV activity assay in cell culture (HCV RNA by one-step quantitative RT-PCR)
Format: cell-based
Conditions: compound at 10 μmol/L, Huh7.5 cells infected with HCV virus particles, cultured 96 hrs, HCV RNA in cells vs virus control group; for inhibition at 10 µM: Hepatitis C virus, Huh7.5, 96 h, read-out: percent inhibition (%)
Experimental: The assay results of anti-HCV activity of the compound synthesized according to the present invention in cell culture are shown in Table 1, wherein the molecular weight is calculated by ChemBioDraw 12.0 software from the molecular structure of each compound.
100 μL Huh7.5 cells were seeded in 96-well cell culture plate to 1×10^5/mL density, cultured in an incubator at 37° C. under the condition of 5% CO2 and saturated humidity for 6 hrs. Huh7.5 cells were then infected by viral solution containing HCV virus particles, and solutions of compound of the present invention at a concentration of 10 μmol/L liquid were added respectively, cultured for further 96 hrs, and then total RNA was extracted from the cells. Amount of HCV RNA in cells was determined by one-step quantitative RT-PCR, and compared to RNA levels of the virus control group to calculate the inhibition rate of compounds on HCV.

Row | SMILES | inhibition at 10 µM [%] | percent inhibition (%)
1 | Cc1ccc(NCc2cc(N3CCNCC3)ccc2C#N)cc1 [Compound 1, 4-(piperazin-1-yl)-2-((p-methylphenylamino)methyl)benzonitrile] | 97 | –
2 | COc1ccc(NCc2cc(N3CCNCC3)ccc2C#N)cc1 [Compound 2, 4-(piperazin-1-yl)-2-(p-methoxyphenylamino)methylbenzonitrile] | 89 | –
3 | Cc1ccc(NCc2cc(N3CCN(C)CC3)ccc2C#N)cc1 [Compound 3, 4-(4-methylpiperazin-1-yl)-2-(p-methylphenylamino)methylbenzonitrile] | 92 | –
4 | CN1CCN(c2ccc(C#N)c(CNc3ccccc3)c2)CC1 [Compound 4, 4-(4-methylpiperazin-1-yl)-2-(phenylamino)methylbenzonitrile] | 82 | –
5 | Cc1ccc(NCc2cc(N3CCNC(C)C3)ccc2C#N)cc1 (stereo not drawn) [Compound 5, 4-(3-methylpiperazin-1-yl)-2-(p-methylphenylamino)methylbenzonitrile] | 88 | –
6 | Cc1ccc(NCc2cc(N3CCCC(N)C3)ccc2C#N)cc1 (stereo not drawn) [Compound 6, 4-(3-aminopiperidin-1-yl)-2-(p-methylphenylamino)methylbenzonitrile] | 68 | –
7 | N#Cc1ccc(N2CCNCC2)cc1CNc1ccccc1 [Compound 7, 4-(piperazin-1-yl)-2-(phenylamino)methylbenzonitrile] | 82 | –
8 | CN1CCN(c2ccc(C#N)c(CNc3ccc(Cl)cc3)c2)CC1 [Compound 8, 4-(4-methylpiperazin-1-yl)-2-(p-chlorophenylamino)methylbenzonitrile] | 91 | –
9 | N#Cc1ccc(N2CCNCC2)cc1CNc1ccc(Cl)cc1 [Compound 9, 4-(piperazin-1-yl)-2-(p-chlorophenylamino)methylbenzonitrile] | 92 | –
10 | COc1ccc(NCc2cc(N3CCN(C)CC3)ccc2C#N)cc1 [Compound 10, 4-(4-methylpiperazin-1-yl)-2-(p-methoxyphenylamino)methylbenzonitrile] | 90 | –
11 | CN1CCN(c2ccc(C#N)c(CNc3ccc(C4CCCCC4)cc3)c2)CC1 [Compound 11, 4-(4-methylpiperazin-1-yl)-2-(p-cyclohexylphenylamino)methylbenzonitrile] | 97 | –
12 | CN1CCN(c2ccc(C#N)c(CNc3ccc(C(C)(C)C)cc3)c2)CC1 [Compound 12, 4-(4-methylpiperazin-1-yl)-2-(p-tert-butylphenylamino)methylbenzonitrile] | 92 | –
13 | CCc1ccc(NCc2cc(N3CCN(C)CC3)ccc2C#N)cc1 [Compound 13, 4-(4-methylpiperazin-1-yl)-2-(p-ethylphenylamino)methylbenzonitrile] | 87 | –
14 | Cc1ccc(N(C)Cc2cc(N3CCN(C)CC3)ccc2C#N)cc1 [Compound 14, 4-(4-methylpiperazin-1-yl)-2-((p-methylphenyl)(methyl)amino)methylbenzonitrile] | 97 | –
15 | CCCN(Cc1cc(N2CCN(C)CC2)ccc1C#N)c1ccc(Cl)cc1 [Compound 15, 4-(4-methylpiperazin-1-yl)-2-((p-chlorophenyl)(propyl)amino)methylbenzonitrile] | 88 | –
16 | COc1ccc(N(C)Cc2cc(N3CCN(C)CC3)ccc2C#N)cc1 [Compound 16, 4-(4-methylpiperazin-1-yl)-2-((p-methoxyphenyl)(methyl)amino)methylbenzonitrile] | 84 | –
17 | CCCN(Cc1cc(N2CCN(C)CC2)ccc1C#N)c1ccc(C(C)(C)C)cc1 [Compound 17, 4-(4-methylpiperazin-1-yl)-2-((p-tert-butylphenyl)(propyl)amino)methylbenzonitrile] | 96 | –
18 | CCCN1CCN(c2ccc(C#N)c(CNc3ccccc3)c2)CC1 [Compound 18, 4-(4-propylpiperazin-1-yl)-2-(phenylamino)methylbenzonitrile] | 75 | –
19 | C=CCN1CCN(c2ccc(C#N)c(CN(C)c3ccc(C(C)(C)C)cc3)c2)CC1 [Compound 19, 4-(4-allylpiperazin-1-yl)-2-((p-tert-butylphenyl)(methyl)amino)methylbenzonitrile] | 86 | –
20 | COc1ccc(N(C)Cc2cc(N3CCN(c4ccccc4)CC3)ccc2C#N)cc1 [Compound 20, 4-(4-phenylpiperazin-1-yl)-2-((p-methoxyphenyl)(methyl)amino)methylbenzonitrile] | 70 | –
21 | CC(C)c1ccc(NCc2cc(N3CCN(C)CC3)ccc2C#N)cc1 [Compound 21, 4-(4-methylpiperazin-1-yl)-2-(p-isopropylphenylamino)methylbenzonitrile] | 90 | –

Row | SMILES | inhibition at 10 µM [%] | percent inhibition (%)
22 | CCCN1CCN(c2ccc(C#N)c(CN(C)c3ccc(Oc4ccccc4)cc3)c2)CC1 [Compound 22, 4-(4-propylpiperazin-1-yl)-2-((p-phenoxyphenyl)(methyl)amino)methylbenzonitrile] | 86 | –
23 | CCCN1CCN(c2ccc(C#N)c(CNc3ccc(Sc4ccccc4)cc3)c2)CC1 [Compound 23, 4-(4-propylpiperazin-1-yl)-2-(p-(phenylthio)phenylamino)methylbenzonitrile] | 78 | –
24 | CN1CCN(c2ccc(C#N)c(CNc3ccc(C4CCCC4)cc3)c2)CC1 [Compound 24, 4-(4-methylpiperazin-1-yl)-2-(p-cyclopentylphenylamino)methylbenzonitrile] | 94 | –
25 | COc1ccc(N(C)Cc2cc(N3CC(C)NC(C)C3)ccc2C#N)cc1 (stereo not drawn) [Compound 25, 4-(3,5-dimethylpiperazin-1-yl)-2-((p-methoxyphenyl)(methyl)amino)methylbenzonitrile] | 75 | –
26 | Cc1ccc(NCc2cc(NCCCN(C)C)ccc2C#N)cc1 [Compound 26, 4-(N,N-dimethyl-1,3-propanediamin-1-yl)-2-(p-methylphenylamino)methylbenzonitrile] | – | 79
27 | CN(C)CCCNc1ccc(C#N)c(CNc2ccccc2)c1 [Compound 27, 4-(N,N-dimethyl-1,3-propanediamin-1-yl)-2-(phenylamino)methylbenzonitrile] | – | 78
28 | Cc1ccc(NCc2cc(NCCN3CCCCC3)ccc2C#N)cc1 [Compound 28, 4-((2-(piperidin-1-yl)ethyl)amino)-2-(p-methylphenylamino)methylbenzonitrile] | 65 | –
29 | CN(C)CCCNc1ccc(C#N)c(CNc2ccc(Cl)cc2)c1 [Compound 29, 4-(N,N-dimethyl-1,3-propanediamin-1-yl)-2-(p-chlorophenylamino)methylbenzonitrile] | – | 80
30 | COc1ccc(NCc2cc(NCCN(C)C)ccc2C#N)cc1 [Compound 30, 4-(N,N-dimethyl-1,3-ethylenediamin-1-yl)-2-(p-methoxyphenylamino)methylbenzonitrile] | – | 49
31 | COc1ccc(NCc2cc(NCN3CCCCC3)ccc2C#N)cc1 [Compound 31, 2-((4-methoxyphenyl)amino)methyl-4-(piperidin-1-ylmethyl)aminobenzonitrile] | 61 | –
32 | CN(C)CNc1ccc(C#N)c(CNc2ccc(C(C)(C)C)cc2)c1 [Compound 32, 2-((4-tert-butylphenyl)amino)methyl-4-((N,N-dimethylamino)methyl)aminobenzonitrile] | 73 | –
33 | CN(C)CN(C)c1ccc(C#N)c(CN(C)c2ccc(C(C)(C)C)cc2)c1 [Compound 33, 2-((4-tert-butylphenyl)(methyl)amino)methyl-4-(((dimethylamino)methyl)(methyl)amino)benzonitrile] | 89 | –
34 | N#Cc1ccc(NCCN2CCCCC2)nc1CNCCCc1ccc(C2CCCC2)cc1 [Compound 34, 2-(((4-cyclopentylphenyl)propylamino)methyl)-6-(2-(piperidin-1-yl)ethyl)amino-3-cyanopyridine] | 76 | –
35 | CN1CCN(c2ccc(C#N)c(CNc3ccc(C4CCCC4)cc3)n2)CC1 [Compound 35, 6-(4-methylpiperazin-1-yl)-2-((4-cyclopentylphenylamino)methyl)-3-cyanopyridine] | 80 | –
36 | COc1ccc(NCc2nc(N3CCN(C)CC3)ccc2C#N)cc1 [Compound 36, 2-((4-methoxyphenyl)amino)methyl-6-(4-methylpiperazin-1-yl)-3-cyanopyridine] | 75 | –
37 | Cc1ccc(NCc2nc(N3CCN(C)CC3)ccc2C#N)cc1 [Compound 37, 2-((4-methylphenyl)amino)methyl-6-(4-methylpiperazin-1-yl)-3-cyanopyridine] | 72 | –
38 | COc1ccc(NCc2nc(N(C)CCN(C)C)ccc2C#N)cc1 [Compound 38, 6-((2-(dimethylamino)ethyl)(methyl)amino)-2-((4-methoxyphenyl)amino)methyl-3-cyanopyridine] | 70 | –
39 | COc1cc(NCc2nc(N(C)CCN(C)C)ccc2C#N)cc(OC)c1 [Compound 39] | – | 75
40 | Cc1cccc(NCc2nc(N(C)CCN(C)C)ccc2C#N)c1 [Compound 40, 6-((2-(dimethylamino)ethyl)(methyl)amino)-2-((3-methylphenyl)amino)methyl-3-cyanopyridine] | 84 | –
41 | CCCN1CCN(c2ccc(C#N)c(CN(CC)c3ccc(Sc4ccccc4)cc3)n2)CC1 [Compound 41, 2-((4-(phenylthio)phenyl)(ethyl)amino)methyl-6-(4-propylpiperazin-1-yl)-3-cyanopyridine] | 57 | –
42 | CN1CCN(c2ccc(C#N)c(CNc3ccc(Br)cc3)c2)CC1 [Compound 42, 2-(((4-bromophenyl)amino)methyl)-4-(4-methylpiperazin-1-yl)benzonitrile] | 87 | –
